Reference: PubChem BioAssay AID2060614 (Molecular Pharmacology Branch, DTP, NCI, 2025)
“And” between values parts separate entries of the source, which are not always exact repeats. Equal entries are not always repeated.

System: 598228-144-R-J1-PDC complex spheroids, viability
Assay: Anticancer human tumor 598228-144-R-J1-PDC patient-derived serous endometrial adenocarcinoma cell line growth inhibition [CLK]
Details: for viability, T/C: stronger effect = lower value
Summary of the method: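 Multi-cell-type spheroids combined patient-derived tumor cells with HUVEC endothelial cells and human mesenchymal stem cells. Paired agents were dosed in half-log steps down from about clinical Cmax, or from 10 microM where Cmax was unknown.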

[1] = curve of first compound, second compound 0.0316 µM
[2] = curve of first compound, second compound 0.1 µM
[3] = curve of first compound, second compound 0.316 µM
[4] = curve of first compound, second compound 1 µM
[5] = curve of first compound, second compound 3.16 µM
[6] = curve of first compound, second compound 10 µM
[7] = second compound 0.0316 µM, first compound 0.0316 µM
[8] = second compound 0.0316 µM, first compound 0.1 µM
[9] = second compound 0.0316 µM, first compound 0.316 µM
[10] = second compound 0.0316 µM, first compound 1 µM
[11] = second compound 0.0316 µM, first compound 3.16 µM
[12] = second compound 0.0316 µM, first compound 10 µM
[13] = second compound 0.1 µM, first compound 0.0316 µM
[14] = second compound 0.1 µM, first compound 0.1 µM
[15] = second compound 0.1 µM, first compound 0.316 µM
[16] = second compound 0.1 µM, first compound 1 µM
[17] = second compound 0.1 µM, first compound 3.16 µM
[18] = second compound 0.1 µM, first compound 10 µM
[19] = second compound 0.316 µM, first compound 0.0316 µM
[20] = second compound 0.316 µM, first compound 0.1 µM
[21] = second compound 0.316 µM, first compound 0.316 µM
[22] = second compound 0.316 µM, first compound 1 µM
[23] = second compound 0.316 µM, first compound 3.16 µM
[24] = second compound 0.316 µM, first compound 10 µM
[25] = second compound 1 µM, first compound 0.0316 µM
[26] = second compound 1 µM, first compound 0.1 µM
[27] = second compound 1 µM, first compound 0.316 µM
[28] = second compound 1 µM, first compound 1 µM
[29] = second compound 1 µM, first compound 3.16 µM
[30] = second compound 1 µM, first compound 10 µM
[31] = second compound 3.16 µM, first compound 0.0316 µM
[32] = second compound 3.16 µM, first compound 0.1 µM
[33] = second compound 3.16 µM, first compound 0.316 µM
[34] = second compound 3.16 µM, first compound 1 µM
[35] = second compound 3.16 µM, first compound 3.16 µM
[36] = second compound 3.16 µM, first compound 10 µM
[37] = second compound 10 µM, first compound 0.0316 µM
[38] = second compound 10 µM, first compound 0.1 µM
[39] = second compound 10 µM, first compound 0.316 µM
[40] = second compound 10 µM, first compound 1 µM
[41] = second compound 10 µM, first compound 3.16 µM
[42] = second compound 10 µM, first compound 10 µM
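Note: spheroids exposed to compounds for seven days before readout.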
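Throughout, for viability, T/C: 100% = DMSO vehicle control wells.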

O=c1[nH]cc(F)c(=O)[nH]1 + CN1CCN(c2cc(C(=O)Nc3cc4cc(-c5cnn(C)c5)ccc4cn3)ccn2)CC1
IC50 [1]: > 10 µM | IC50 [2]: > 10 µM | IC50 [3]: < 0.0316 µM | IC50 [4]: < 0.0316 µM | IC50 [5]: < 0.0316 µM | IC50 [6]: < 0.0316 µM | viability, T/C [7]: 128% | viability, T/C [8]: 120% | viability, T/C [9]: 132% | viability, T/C [10]: 125% | viability, T/C [11]: 125% | viability, T/C [12]: 96.5% | viability, T/C [13]: 149% | viability, T/C [14]: 119% | viability, T/C [15]: 123% | viability, T/C [16]: 139% | viability, T/C [17]: 113% | viability, T/C [18]: 96% | viability, T/C [19]: 20.4% | viability, T/C [20]: 25% | viability, T/C [21]: 18.3% | viability, T/C [22]: 18% | viability, T/C [23]: 18.1% | viability, T/C [24]: 21.4% | viability, T/C [25]: 1.7% | viability, T/C [26]: 1.4% | viability, T/C [27]: 1.3% | viability, T/C [28]: 1.91% | viability, T/C [29]: 4.01% | viability, T/C [30]: 5.93% | viability, T/C [31]: 1.76% | viability, T/C [32]: 3.81% | viability, T/C [33]: 1.88% | viability, T/C [34]: 2.14% | viability, T/C [35]: 1.46% | viability, T/C [36]: 5.59% | viability, T/C [37]: 0.99% | viability, T/C [38]: 0.93% | viability, T/C [39]: 0.6% | viability, T/C [40]: 1.01% | viability, T/C [41]: 5.93% | viability, T/C [42]: 4.87%

Cn1ncnc1[C@H]1c2n[nH]c(=O)c3cc(F)cc(c23)N[C@@H]1c1ccc(F)cc1 + CNC(=O)c1ccc(Nc2nc(OC3CCCC3)c3c(-c4ccc5nc(C)oc5c4)c[nH]c3n2)c(OC)c1
IC50 [1]: > 0.1 µM | IC50 [2]: > 0.1 µM | IC50 [3]: > 0.1 µM | IC50 [4]: > 0.1 µM | IC50 [5]: > 0.1 µM | IC50 [6]: > 0.1 µM | viability, T/C (second compound 0.0316 µM, first compound 0.000316 µM): 111% | viability, T/C (second compound 0.0316 µM, first compound 0.001 µM): 118% | viability, T/C (second compound 0.0316 µM, first compound 0.00316 µM): 122% | viability, T/C (second compound 0.0316 µM, first compound 0.01 µM): 121% | viability, T/C [7]: 114% | viability, T/C [8]: 108% | viability, T/C (second compound 0.1 µM, first compound 0.000316 µM): 109% | viability, T/C (second compound 0.1 µM, first compound 0.001 µM): 122% | viability, T/C (second compound 0.1 µM, first compound 0.00316 µM): 120% | viability, T/C (second compound 0.1 µM, first compound 0.01 µM): 121% | viability, T/C [13]: 112% | viability, T/C [14]: 96.8% | viability, T/C (second compound 0.316 µM, first compound 0.000316 µM): 114% | viability, T/C (second compound 0.316 µM, first compound 0.001 µM): 119% | viability, T/C (second compound 0.316 µM, first compound 0.00316 µM): 92% | viability, T/C (second compound 0.316 µM, first compound 0.01 µM): 115% | viability, T/C [19]: 118% | viability, T/C [20]: 98.1% | viability, T/C (second compound 1 µM, first compound 0.000316 µM): 112% | viability, T/C (second compound 1 µM, first compound 0.001 µM): 109% | viability, T/C (second compound 1 µM, first compound 0.00316 µM): 107% | viability, T/C (second compound 1 µM, first compound 0.01 µM): 117% | viability, T/C [25]: 117% | viability, T/C [26]: 99.3% | viability, T/C (second compound 3.16 µM, first compound 0.000316 µM): 101% | viability, T/C (second compound 3.16 µM, first compound 0.001 µM): 99.2% | viability, T/C (second compound 3.16 µM, first compound 0.00316 µM): 99.7% | viability, T/C (second compound 3.16 µM, first compound 0.01 µM): 118% | viability, T/C [31]: 104% | viability, T/C [32]: 105% | viability, T/C (second compound 10 µM, first compound 0.000316 µM): 105% | viability, T/C (second compound 10 µM, first compound 0.001 µM): 115% | viability, T/C (second compound 10 µM, first compound 0.00316 µM): 99.5% | viability, T/C (second compound 10 µM, first compound 0.01 µM): 105% | viability, T/C [37]: 82.5% | viability, T/C [38]: 128%

O=c1[nH]cc(F)c(=O)[nH]1 + CNC(=O)c1ccc(Nc2nc(OC3CCCC3)c3c(-c4ccc5nc(C)oc5c4)c[nH]c3n2)c(OC)c1
IC50 [1]: > 10 µM | IC50 [2]: > 10 µM | IC50 [3]: > 10 µM | IC50 [4]: > 10 µM | IC50 [5]: > 10 µM | IC50 [6]: > 10 µM | viability, T/C [7]: 99.7% | viability, T/C [8]: 113% | viability, T/C [9]: 107% | viability, T/C [10]: 103% | viability, T/C [11]: 99.9% | viability, T/C [12]: 86.5% | viability, T/C [13]: 116% | viability, T/C [14]: 111% | viability, T/C [15]: 128% | viability, T/C [16]: 115% | viability, T/C [17]: 101% | viability, T/C [18]: 76.6% | viability, T/C [19]: 108% | viability, T/C [20]: 106% | viability, T/C [21]: 110% | viability, T/C [22]: 112% | viability, T/C [23]: 96.2% | viability, T/C [24]: 90% | viability, T/C [25]: 102% | viability, T/C [26]: 99.7% | viability, T/C [27]: 94.5% | viability, T/C [28]: 101% | viability, T/C [29]: 93.4% | viability, T/C [30]: 83.6% | viability, T/C [31]: 95% | viability, T/C [32]: 97% | viability, T/C [33]: 97.1% | viability, T/C [34]: 83.1% | viability, T/C [35]: 94.5% | viability, T/C [36]: 77.3% | viability, T/C [37]: 87.8% | viability, T/C [38]: 86.6% | viability, T/C [39]: 89.8% | viability, T/C [40]: 88.5% | viability, T/C [41]: 77.8% | viability, T/C [42]: 65.2%

CC1(C)CCC(CN2CCN(c3ccc(C(=O)NS(=O)(=O)c4ccc(NCC5CCOCC5)c([N+](=O)[O-])c4)c(Oc4cnc5[nH]ccc5c4)c3)CC2)=C(c2ccc(Cl)cc2)C1
viability, T/C (compound 0.0316 µM): 107% and 88.7% | viability, T/C (compound 0.1 µM): 89.8% and 91.9% | viability, T/C (compound 0.316 µM): 89.7% and 89.9% | viability, T/C (compound 1 µM): 104% and 105% | viability, T/C (compound 3.16 µM): 101% and 94.9% | viability, T/C (compound 10 µM): 32.4% and 26.7% | IC50 (curve of compound): 7.36 µM and 6.72 µM

CN1CCN(c2cc(C(=O)Nc3cc4cc(-c5cnn(C)c5)ccc4cn3)ccn2)CC1
viability, T/C (compound 0.316 µM): 17.4% [middle of 11 runs] | viability, T/C (compound 1 µM): 3.28% [middle of 12 runs] | viability, T/C (compound 3.16 µM): 2.39% [middle of 11 runs] | viability, T/C (compound 10 µM): 1% [middle of 11 runs] | IC50 (compound alone, run of 09/18/2023): 216 nM [middle of 10 runs]
